Results reported in patent EP0318240A2, “Peptide, adsorbent, method for production thereof, and method for use thereof” (AGENCY OF INDUSTRIAL SCIENCE & TECHNOLOGY MINISTRY OF …, priority 1987, dated 1989).

Assay: Solubility of peptide in the phosphate buffer solution used for immobilization
Format: physicochemical
Conditions: phosphate buffer solution (0.02 mol/liter) of pH 7.4
Procedure: • (a) In 50 ml of dioxane obtained by distillation in the presence of sodium metal, 10 g of cellulose particles (marketed by Seikagaku Kogyo Co., Ltd. under the tradename "CM-Cellulofine CH") were suspended. In the suspension, 0.5 g of N-hydroxysuccinimide and 1.0 g of dicyclohexylcarbodiimide added thereto were shaken overnight at room temperature. The resultant mixture was washed with a phosphate buffer solution (0.02 mol/liter) of pH 7.4 and suction filtered. The particles consequently obtained and 20 ml of a phosphate buffer solution (0.02 mol/liter) of pH 7.4 containing 20 mg of the peptide of Example 1 added thereto were stirred overnight at a temperature of 4°C. The mixture consequently obtained was suction filtered. […] Thus, about 10 g of cellulose particles (the adsorbent not heat treated) having immobilized thereon 20 mg of the peptide of Example 1 were obtained. • (b) In 5-ml aliquots of a phosphate buffer solution (0.02 mol/liter) of pH 7.4 containing sodium chloride in a concentration of 0.15 mol/liter, the peptide-immobilized cellulose particles obtained as described above were suspended in a unit amount of 1 g. […]

solubility in the phosphate buffer solution: low solubility
Substance: H-Leu-Leu-Gly-Trp-Lys-His-Trp-Val-Tyr-Tyr-Thr- C y s - C^y s -Pro-Asp-Thr-Pro-Tyr-Leu-Asp-OH [Referential Example 2]
